Reference: patent US12195755B2, “Placental lipid bilayer for cell-free molecular interaction studies” (priority 2019, dated 2025)

Tests used:
keratinocytes = conditions: cited from earlier work
[1] = cited from earlier work
[2] = Parallel artificial membrane permeability assay (PAMPA) with suspended lipid bilayers; type: in vitro ADME, human; conditions: 0.1 mg/mL amphotericin B
Protocol: “Parallel artificial membrane permeability assay” (PAMPA) is a method that determines the permeability of substances from a donor compartment, through a lipid-infused artificial membrane into an acceptor compartment. A multi-well microtiter plate is used for the donor, and a membrane/acceptor compartment is placed on top. The whole assembly is referred to in the heterogeneous membrane art as a “sandwich.” Initially, the drug is added to the donor compartment, and the acceptor compartment is drug-free. After an incubation period, which may include stirring, the sandwich is separated, and the drug is measured in each compartment. Techniques including but not limited to absorbance measurements allow calculation of the drug that remains in the membrane.
Using a parallel artificial permeability assay (PAMPA) with suspended lipid bilayers, polyvinylidene difluoride (PVDF) 96-well multiscreen filter plates ([…]) and transport receiver plates (Millipore-Sigma, Burlington, MA, USA), the inventors investigate DEHP, amphotericin B, and amBisome® diffusion from a donor compartment, through the porous membrane treated with lipid, to an acceptor compartment. The maximum absorbance for DEHP, amphotericin B, and amBisome® was measured using a plate reader and determined to be 280 nm, 340 nm, and 320 nm, respectively. […]

CNC(=O)Oc1cccc2c1OC(C)(C)C2 [Carbofuran, carbofuran]
toxicity against keratinocytes (keratinocytes): toxic

CCCCC(CC)COC(=O)c1ccccc1C(=O)OCC(CC)CCCC (centres unmarked) [DEHP, di(2-ethylhexyl) phthalate]
risk for miscarriage ([1]; higher concentrations of phthalates): increases the risk for miscarriage | more likely to lose a pregnancy compared to women with lower levels ([1]; women exposed to high concentrations): 60%

C[C@@H]1[C@H](O)[C@@H](C)/C=C/C=C/C=C/C=C/C=C/C=C/C=C/[C@H](O[C@@H]2O[C@H](C)[C@@H](O)[C@H](N)[C@@H]2O)C[C@@H]2O[C@](O)(C[C@@H](O)C[C@@H](O)[C@H](O)CC[C@@H](O)C[C@@H](O)CC(=O)O[C@H]1C)C[C@H](O)[C@H]2C(=O)O [amphotericin B]
interaction with suspended trophoblast bilayers compared to amBisome® [2]: interacts less | interaction with suspended trophoblast bilayers compared to amBisome® ([2]; listed as Amphotericin B): interacted more
